Test results published in patent publication US20190365784A1, “USE OF BRASSINOSTEROID ANALOGS FOR THE TREATMENT OF DERMAL DISORDERS BY SELECTIVELY MODULATING LIVER X RECEPTORS (LXR) AND DERMAL DISEASE TREATMENT BY BRASSINOSTEROID ANALOGS ACTING AS SELECTIVE LIVER X RECEPTOR (LXR) MODULATORS” (CONSEJO NACIONAL DE INVESTIGACIONES CIENTÍFICAS Y TÉCNICAS …, priority 2015, published 2019).

Key:
[1] = system: ABCA1; experiment: ABCA1 expression in HaCaT cells (real time PCR); type: cell-based, human; settings: HaCaT; 10 uM; 24 h after UV irradiation
Protocol: […] Twenty four hours after irradiation, the cells were harvested and RNA isolated to assess the expression of LXR-alpha, LXR-beta, ABCA1, TNF-alpha, IL-6, and IL-8 genes. HaCaT cells were cultured in DMEM supplemented with 10% (v/v) fetal bovine serum, penicillin (100 U/mL), streptomycin ([…]) and glutamine (2 mM). […] The expressions of ABCA1, TNF-alpha, IL-6, IL-8, LXR-alpha, and LXR-beta were normalized according to glyceraldehyde-3-phosphate dehydrogenase (GAPDH) expression. The results of three independent assays, carried out in duplicate for each condition, are reported.

[2] = system: ABCA1; experiment: ABCA1 expression in HL-60 cells (real time PCR); type: cell-based, human; settings: 10 uM, 6 h
Protocol: To investigate the effects of Compounds I and II on the expression of three genes involved in lipid metabolism [fatty acid synthase (FAS); and two ATP-dependent cholesterol and phospholipid transporters, such as ABCA1 and ABCG1], human promyelocytic leukemia cells (HL-60) that endogenously express LXR-alpha and LXR-beta were incubated in the presence of either Comp I or Comp II (10 uM), or GW3965 (1 uM) for 6 h. mRNA levels for FAS, ABCA1 and ABCG1 were determined by real time PCR and results were normalized to GAPDH expression. HL-60 (10^6 cells/well) were cultured in RPMI medium supplemented with 5% (v/v) fetal bovine serum, penicillin (100 IU/mL), streptomycin (100 ug/mL) y cyprofloxacin (0.4 ug/mL). […] To obtain RNA, at the end of the incubation the cells were collected by centrifugation at 1,000 rpm for 2 min, washed with phosphate buffered saline, and lysed in 300 ul TRIZOL (Invitrogen). RNA samples were suspended in […] of RNAse free water, and their concentration determined (NanoDrop spectrophotometer). […] To obtain cDNA, 1 ug of total RNA was denatured by incubating for 5 min at 70° C., before the addition of a mixture containing 0.5 ug oligo-dT primers and 25 ng/ml of random primers (Invitrogen), 1.0 mM dNTPs (Invitrogen), and 200 U M-MLV reverse transcriptase (Promega); after this the mixture was retrotranscribed at 37° C. for 60 min, followed by an incubation at 95° C. for 5 min to inactivate the enzyme. For the real time PCR amplification (Stratagene Thermal Cycler), cDNA samples were diluted 1/5 to 1/10 depending on the target amplification product. Calibration curves were obtained by use of eight successive 1:2 sample dilutions. Amplifications were carried out in a 25 ul final volume (5 ul cDNA sample plus 20 ul of reaction mixture) in the presence of either 3, 4 or 5 mM MgCl2 (depending on the amplified sequence), 0.25 mM dNTPs (Invitrogen), 1.25 U Taq polymerase (Invitrogen), 1 μM of the specific primers according to the target amplification sequence, and 0.025 μl SYBR Green (Roche). […]

[3] = system: fatty acid synthase (FAS or FASN); experiment: FASN expression in HepG2 cells (real time PCR); type: cell-based, human; settings: 1 uM, 3 uM and 10 uM, 6 h
Protocol: (§1) The cells were incubated for 6 h in the presence of either Compound I (10 uM), or Compound II (10 uM), or the commercial LXR agonist GW3965 (1 uM), or Vehicle [DMSO, 0.1% (v/v)]). To obtain RNA, at the end of the incubation the cells were collected by centrifugation at 1,000 rpm for 2 min, washed with phosphate buffered saline, and lysed in 300 ul TRIZOL (Invitrogen). RNA samples were suspended in ul of RNAse free water, and their concentration determined (NanoDrop spectrophotometer). The ratio of the absorbance at 260 and 280 nm was used to assess RNA purity of an RNA preparation, with a value of 1.8-2.0 indicating pure RNA. To obtain cDNA, 1 ug of total RNA was denatured by incubating for 5 min at 70° C., before the addition of a mixture containing 0.5 ug oligo-dT primers and 25 ng/ml of random primers (Invitrogen), 1.0 mM dNTPs (Invitrogen), and 200 U M-MLV reverse transcriptase (Promega); after this the mixture was retrotranscribed at 37° C. for 60 min, followed by an incubation at 95° C. for 5 min to inactivate the enzyme. For the real time PCR amplification (Stratagene Thermal Cycler), cDNA samples were diluted 1/5 to 1/10 depending on the target amplification product. Calibration curves were obtained by use of eight successive 1:2 sample dilutions. Amplifications were carried out in a 25 ul final volume (5 ul cDNA sample plus 20 ul of reaction mixture) in the presence of either 3, 4 or 5 mM MgCl2 (depending on the amplified sequence), 0.25 mM dNTPs (Invitrogen), 1.25 U Taq polymerase (Invitrogen), 1 μM of the specific primers according to the target amplification sequence, and 0.025 μl SYBR Green (Roche). Melting curves were used to assess the specificity of the amplification products. […]

[4] = system: ABCG1; experiment: ABCG1 expression in HepG2 cells (real time PCR); type: cell-based, human; settings: 10 uM, 6 h
Protocol: as §1

[5] = target: T1, LXR-alpha (Homo sapiens, UniProt Q13133); experiment: LXR-alpha/RXR LRE-luciferase reporter in transfected BHK cells; type: cell-based; design: expressed in transfected cells; host or cells: BHK (baby hamster kidney cells), transient transfection as for HEK293T; settings: for stimulation of LXR-alpha-driven gene transcription [(LXRE)-luciferase activity] / effect on LXR-alpha-driven expression of luciferase: 1 uM; for stimulation of LXR-alpha-driven gene transcription [(LXRE)-luciferase activity]: 3 uM and 10 uM; for effect on LXR-alpha-driven expression of luciferase / LXR-alpha-driven luciferase expression, increase compared with vehicle-treated cells: 18 h
T1 sequence (Q13133 1-447): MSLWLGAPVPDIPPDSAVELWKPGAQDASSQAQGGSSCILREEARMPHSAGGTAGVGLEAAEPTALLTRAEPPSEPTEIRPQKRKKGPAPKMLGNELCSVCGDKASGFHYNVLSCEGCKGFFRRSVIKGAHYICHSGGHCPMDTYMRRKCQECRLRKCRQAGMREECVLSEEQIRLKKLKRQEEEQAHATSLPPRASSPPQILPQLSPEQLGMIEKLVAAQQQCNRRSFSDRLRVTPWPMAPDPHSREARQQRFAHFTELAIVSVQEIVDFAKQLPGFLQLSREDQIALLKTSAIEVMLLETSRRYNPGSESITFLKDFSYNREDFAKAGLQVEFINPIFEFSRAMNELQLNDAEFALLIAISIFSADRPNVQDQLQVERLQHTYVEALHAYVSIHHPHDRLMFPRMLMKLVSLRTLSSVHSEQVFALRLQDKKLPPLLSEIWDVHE
T1 sequence (P19793 1-462 partner): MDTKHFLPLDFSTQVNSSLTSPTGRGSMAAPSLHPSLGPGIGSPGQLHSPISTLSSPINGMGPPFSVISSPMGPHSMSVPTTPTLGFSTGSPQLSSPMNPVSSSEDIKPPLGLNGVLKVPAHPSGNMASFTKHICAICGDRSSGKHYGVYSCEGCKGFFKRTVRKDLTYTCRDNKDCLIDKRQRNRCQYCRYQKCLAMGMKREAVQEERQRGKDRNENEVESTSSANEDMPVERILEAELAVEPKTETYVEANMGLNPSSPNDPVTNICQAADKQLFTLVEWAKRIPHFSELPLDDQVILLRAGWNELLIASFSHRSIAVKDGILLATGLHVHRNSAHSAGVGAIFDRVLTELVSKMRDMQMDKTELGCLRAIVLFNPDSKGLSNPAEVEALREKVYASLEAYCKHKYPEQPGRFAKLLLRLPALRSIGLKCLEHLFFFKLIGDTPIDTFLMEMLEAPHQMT
Protocol: B. Baby hamster kidney cells (5×10^5 cells/well) were cultured and transiently transfected as described above (Methods A.) for HEK293T cells. After transfection, the culture medium was replaced by serum-free DMEM, and the cells were incubated for 18 h with either Compound I or Compound II at 1×10^−6 M, 3×10^−6 M or 10^−5 M each, or vehicle [DMSO, 0.1% (v/v) final concentration], or GW3965 at a concentration of 10^−6 M. LXR-alpha activation was determined as described in A.

Row | SMILES | ABCA1 expression versus DMSO-treated cells [1] | effect on ABCA1 expression [2] | induction of FASN expression [3] | induction of ABCG1 expression [4] [times] | stimulation of LXR-alpha-driven gene transcription [(LXRE)-luciferase activity] [5] | effect on LXR-alpha-driven expression of luciferase [5] | LXR-alpha-driven luciferase expression, increase compared with vehicle-treated cells ([5]; 3 uM) [fold] | LXR-alpha-driven luciferase expression, increase compared with vehicle-treated cells ([5]; 10 uM) [fold]
1 | CC[C@@H](C(C)C)[C@H](O)[C@@H](O)[C@@H](C)[C@H]1CC[C@H]2[C@@H]3CCC4=CC(=O)CC[C@]4(C)[C@H]3CC[C@]12C [Compound I, (22S,23S)-22,23-dihydroxystigmast-4-en-3-one] | marginally induced | none of the test compounds significantly affected | did not induce | 8 | within the same concentration range as GW3965 | no effect | 3 | –
2 | CC[C@@H](C(C)C)[C@H](O)[C@@H](O)[C@@H](C)[C@H]1CC[C@H]2[C@@H]3CCC4=CC(=O)C=C[C@]4(C)[C@H]3CC[C@]12C [Compound II, (22S,23S)-22,23-dihydroxystigmasta-1,4-dien-3-one] | marginally induced | none of the test compounds significantly affected | did not induce | 3 | within the same concentration range as GW3965 | no effect | 3 | 3
